Data on 34 molecules can be found in US20240239788A1, “SMALL MOLECULE INHIBITORS OF KRAS G12D MUTANT” (Merck Sharp & Dohme LLC, priority 2021, published 2024).

Structures are written as SMILES. Structures can show the parent of a compound that is named as a salt. Where two headings read alike, the source gives them in different places.

Assay [1] has as its target KRAS protein containing G12D mutation (Homo sapiens (Human), UniProt P01116, G12D). In words: SOS-catalyzed nucleotide exchange assay (GNE), TR-FRET. Format: biochemical. Particulars: biotinylated KRAS G12D, SOS and GTP, 60-minute incubation. As for the experimental part:
Compounds are added to this complex and then after a 60-minute incubation time the mixture is treated with SOS and unlabeled GTP. Small molecule inhibitors stabilize the Bodipy-GDP complex whereas the untreated protein rapidly exchanges Bodipy-GDP for unlabeled GTP resulting in reduced TR-FRET signal.
This solution is referred to as biotinylated KRAS G12D stock solution.

Assay [2] relates to AsPC-1 cells containing homozygous KRAS-G12D activating mutation. In words: Cellular phospho-ERK assay with 10% FBS (Examples 107a-256). It counts as cell-based. As for the experimental part: 5% CO2 for 2 hours. […] Assay plates were read on a EnVision Multimode Plate Reader (PerkinElmer) and the ratio of p-Erk vs total Erk in each well was used as the final readout.
Setting [3] is: Homo sapiens, ASPC1, 2 h, read-out: IC50 (nM) pERK (cell with FBS 10%), AsPC-1 cells, 10% fetal bovine serum, 2 hours, ratio of p-Erk vs total Erk.
The mark [4] stands for this setting: read-out: IC50 (nM) pERK (cell with FBS 10%), AsPC-1 cells, 10% fetal bovine serum, 2 hours, ratio of p-Erk vs total Erk.

Chain of KRAS protein containing G12D mutation (P01116 other isoform, or with tags, fused parts or gaps G12D (already in the parent)): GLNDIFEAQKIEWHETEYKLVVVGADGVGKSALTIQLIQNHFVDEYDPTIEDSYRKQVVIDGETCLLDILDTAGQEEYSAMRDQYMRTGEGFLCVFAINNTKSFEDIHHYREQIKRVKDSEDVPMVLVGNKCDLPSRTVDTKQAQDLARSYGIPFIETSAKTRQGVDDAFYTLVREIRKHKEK

`Cc1cc(N)c(F)c(-c2c(F)cc3c(N4CC5CCC(C4)N5)nc(OC[C@@]45CCCN4C[C@H](F)C5)nc3c2F)c1C(F)(F)F` (single isomer, unassigned) [Ex. 146a]: the results for the IC50 in assay [1] and in assay [2] (setting [3]) were 1.56 nM and 185 nM, respectively.
For the molecule `C#Cc1cccc2scc(-c3c(F)cc4c(N5CC6CC[C@@](C)(C5)N6)nc(OCC5(CN6CCOCC6)CC5)nc4c3F)c12` (single isomer, unassigned) [Ex. 147a], the IC50 in assay [1] turned out to be 400 nM; in assay [2] (setting [3]) it was 16600 nM.
For `C#Cc1cccc2scc(-c3c(F)cc4c(N5CC6CC[C@@](C)(C5)N6)nc(OCC5(CN6CCOCC6)CC5)nc4c3F)c12` (single isomer, unassigned) [Ex. 147b], the results for the IC50 in assay [1] and in assay [2] (setting [4]) were 429 nM and 10200 nM, respectively.
`C#Cc1cccc2cc(N)nc(-c3c(F)cc4c(N5CC6CCC(C5)N6)nc(OC[C@@]56CCCN5C[C@H](F)C6)nc4c3F)c12` (single isomer, unassigned) [Ex. 148a]: the IC50 was determined as 13.6 nM in assay [1] and 235 nM in assay [2] (setting [4]).
The like results for `C#Cc1cccc2cc(N)nc(-c3c(F)cc4c(N5CC6CCC(C5)N6)nc(OC[C@@]56CCCN5C[C@H](F)C6)nc4c3F)c12` (single isomer, unassigned) [Ex. 148b] were, in that order, 751 nM and 8550 nM.
Consider `C#Cc1c(F)ccc2cccc(-c3c(F)cc4c(N5C[C@H]6CC[C@@](C)(C5)N6)nc(OC[C@@]56CCCN5[C@H](CF)CC6)nc4c3F)c12` (single isomer, unassigned) [Ex. 149], for which the IC50 is 103 nM in assay [1] and 4490 nM in assay [2] (setting [3]).
On to `Cc1nc(N)c(F)c(-c2c(F)cc3c(N4CC5CCC(C4)N5)nc(OC[C@@]45CCCN4C[C@H](F)C5)nc3c2F)c1C(F)(F)F` (single isomer, unassigned) [Ex. 151a], for which the IC50 was found to be 1930 nM in assay [1] and 3950 nM in assay [2] (setting [4]).
The like results for `Cc1nc(N)c(F)c(-c2c(F)cc3c(N4CC5CCC(C4)N5)nc(OC[C@@]45CCCN4C[C@H](F)C5)nc3c2F)c1C(F)(F)F` (single isomer, unassigned) [Ex. 151b] were, in that order, 21.6 nM and 278 nM.
For the molecule `Nc1cc(Cl)c(C(F)(F)F)c(-c2c(Cl)cc3c(N4CC5CCC(C4)N5)nc(OC[C@@]45CCCN4C[C@H](F)C5)nc3c2F)n1` (single isomer, unassigned) [Ex. 154a], the results for the IC50 in assay [1] and in assay [2] (setting [3]) were 1.1 nM and 52.1 nM, respectively.
The like results for `Nc1cc(-c2c(Cl)cc3c(N4CC5CCC(C4)N5)nc(OC[C@@]45CCCN4C[C@H](F)C5)nc3c2F)c(C(F)(F)F)c(Cl)n1` (single isomer, unassigned) [Ex. 155b] were, in that order, 2.33 nM and 144 nM.
In the case of `Oc1cc(-c2c(F)cc3c(N4CC5CCC(C4)N5)nc(OC[C@@]45CCCN4C[C@H](F)C5)nc3c2F)c2c(Cl)cccc2c1` (single isomer, unassigned) [Ex. 160a], the results for the IC50 in assay [1] and in assay [2] (setting [4]) were 3.3 nM and 882 nM, respectively.
The like results for `Oc1cc(-c2c(F)cc3c(N4CC5CCC(C4)N5)nc(OC[C@@]45CCCN4C[C@H](F)C5)nc3c2F)c2c(Cl)cccc2c1` (single isomer, unassigned) [Ex. 160b] were, in that order, 367 nM and 12500 nM.
For `CCC(=O)Oc1cc(-c2c(F)cc3c(N4CC5CC[C@@](C)(C4)N5)nc(OC[C@@]45CCCN4C[C@H](F)C5)nc3c2F)c2c(Cl)cccc2c1` (single isomer, unassigned) [Ex. 162a], in that order: 23.1 nM and 659 nM.
The like results for `CCC(=O)Oc1cc(-c2c(F)cc3c(N4CC5CC[C@@](C)(C4)N5)nc(OC[C@@]45CCCN4C[C@H](F)C5)nc3c2F)c2c(Cl)cccc2c1` (single isomer, unassigned) [Ex. 162b] were, in that order, 495 nM and 2390 nM.
With `C[C@]12CC[C@H](CN(c3nc(OC[C@@]45CCCN4C[C@H](F)C5)nc4c(F)c(-c5cc(N)c(F)c6cccc(Cl)c56)c(F)cc34)C1)N2` (single isomer, unassigned) [Ex. 163a], the figures for the IC50 in assay [1] and in assay [2] (setting [4]) were 47.5 nM and 2270 nM, respectively.
The like results for `C[C@]12CC[C@H](CN(c3nc(OC[C@@]45CCCN4C[C@H](F)C5)nc4c(F)c(-c5cc(N)c(F)c6cccc(Cl)c56)c(F)cc34)C1)N2` (single isomer, unassigned) [Ex. 163b] were, in that order, 4740 nM and 35600 nM.
The like results for `Cc1c(C(F)(F)F)c(-c2c(F)cc3c(N4CC5CCC(C4)N5)nc(OC[C@@]45CCCN4C[C@H](F)C5)nc3c2F)c2cn[nH]c2c1F` (single isomer, unassigned) [Ex. 166a] were, in that order, 944 nM and 30000 nM.
The like results for `Cc1c(C(F)(F)F)c(-c2c(F)cc3c(N4CC5CCC(C4)N5)nc(OC[C@@]45CCCN4C[C@H](F)C5)nc3c2F)c2cn[nH]c2c1F` (single isomer, unassigned) [Ex. 166b] were, in that order, 4.4 nM and 152 nM.
Turning to `C[C@]12CC[C@H](CN(c3nc(OC[C@@]45CCCN4C[C@H](F)C5)nc4c(F)c(-c5cncc6cccc(Cl)c56)c(F)cc34)C1)N2` (single isomer, unassigned) [Ex. 167], the IC50 in assay [1] came out at 414 nM; in assay [2] (setting [3]), 8440 nM.
Regarding `C#Cc1cccc2cc(O)cc(-c3c(F)cc4c(N5CC6CC[C@@](C)(C5)N6)nc(OCC5(CN6CC[C@@H](F)C6)CC5)nc4c3F)c12` (single isomer, unassigned) [Ex. 169], the IC50 was found to be 0.7 nM in assay [1] and 73 nM in assay [2] (Homo sapiens, ASPC1, 2 h, read-out: IC50 (nM) pERK (cell with FBS 10%)).
In the case of `C[C@]12CC[C@H](CN(c3nc(OC[C@@]45CCCN4C[C@H](F)C5)nc4c(F)c(-c5c(F)cc(F)c6oc(N)nc56)c(Cl)cc34)C1)N2` (single isomer, unassigned) [Ex. 170a], the results for the IC50 in assay [1] and in assay [2] (setting [4]) were 4.72 nM and 1380 nM, respectively.
The like results for `C[C@]12CC[C@H](CN(c3nc(OC[C@@]45CCCN4C[C@H](F)C5)nc4c(F)c(-c5c(F)cc(F)c6oc(N)nc56)c(Cl)cc34)C1)N2` (single isomer, unassigned) [Ex. 170b] were, in that order, 874 nM and 14900 nM.
On to `C#Cc1cccc2cc(O)cc(-c3c(F)cc4c(N5C[C@H]6CC[C@@](C)(C5)N6)nc(OC)nc4c3F)c12` (single isomer, unassigned) [Ex. 171a, TFA], for which the IC50 in assay [1] was 1260 nM; in assay [2] (setting [3]), 7720 nM.
Turning to `C[C@]12CCC(CN(c3nc(OCC45CCCN4CC(C(F)F)C5)nc4c(F)c(-c5cc(O)cc6cccc(Cl)c56)c(F)cc34)C1)N2` (single isomer, unassigned) [Ex. 173-1a], the IC50 was 8.43 nM in assay [1] and 1570 nM in assay [2] (setting [4]).
For `C[C@]12CCC(CN(c3nc(OCC45CCCN4CC(C(F)F)C5)nc4c(F)c(-c5cc(O)cc6cccc(Cl)c56)c(F)cc34)C1)N2` (single isomer, unassigned) [Ex. 173-1b], in that order: 22.1 nM and 2890 nM.
In the case of `C[C@]12CCC(CN(c3nc(OCC45CCCN4CC(C(F)F)C5)nc4c(F)c(-c5cc(O)cc6cccc(Cl)c56)c(F)cc34)C1)N2` (single isomer, unassigned) [Ex. 173-2a], the IC50 in assay [1] came to 266 nM; in assay [2] (setting [4]), 10200 nM.
Consider `C[C@]12CCC(CN(c3nc(OC[C@@H]4CC[C@H]5CC(F)(F)CCN45)nc4c(F)c(-c5cc(O)cc6cccc(Cl)c56)c(F)cc34)C1)N2` (single isomer, unassigned) [Ex. 175a], for which the results for the IC50 in assay [1] and in assay [2] (setting [3]) were 738 nM and 6450 nM, respectively.
The like results for `C[C@@]12CC[C@H](CN(c3nc(OC[C@@]45CCCN4C[C@H](F)C5)nc4c(F)c(-c5cc(O)cc6ccc(F)c(Cl)c56)c(F)cc34)C1)N2` (single isomer, unassigned) [Ex. 176a] were, in that order, 1.91 nM and 400 nM.
For `C[C@@]12CC[C@H](CN(c3nc(OC[C@@]45CCCN4C[C@H](F)C5)nc4c(F)c(-c5cc(O)cc6ccc(F)c(Cl)c56)c(F)cc34)C1)N2` (single isomer, unassigned) [Ex. 176b], in that order: 110 nM and 4360 nM.
Consider `C#Cc1c(F)ccc2cc(O)cc(-c3c(F)cc4c(N5CC6CC[C@@](C)(C5)N6)nc(OC[C@@]56CCCN5C[C@H](F)C6)nc4c3F)c12` (single isomer, unassigned) [Ex. 177a], for which the IC50 in assay [1] was 0.8 nM; in assay [2] (setting [4]) it was 12.7 nM.
The like results for `C#Cc1c(F)ccc2cc(O)cc(-c3c(F)cc4c(N5CC6CC[C@@](C)(C5)N6)nc(OC[C@@]56CCCN5C[C@H](F)C6)nc4c3F)c12` (single isomer, unassigned) [Ex. 177b] were, in that order, 51.7 nM and 588 nM.
For `CCc1cccc2cc(O)cc(-c3c(F)cc4c(N5CC6CC[C@@](C)(C5)N6)nc(OC[C@@]56CCCN5C[C@H](F)C6)nc4c3F)c12` (single isomer, unassigned) [Ex. 178a], in that order: 1.73 nM and 108 nM.
For `CCc1cccc2cc(O)cc(-c3c(F)cc4c(N5CC6CC[C@@](C)(C5)N6)nc(OC[C@@]56CCCN5C[C@H](F)C6)nc4c3F)c12` (single isomer, unassigned) [Ex. 178b], in that order: 210 nM and 4580 nM.
`C[C@]12CCC(CN(c3nc(OC[C@@]45CCCN4C[C@H](F)C5)nc4c(F)c(-c5cc(O)cc6cc(F)cc(Cl)c56)c(F)cc34)C1)N2` (single isomer, unassigned) [Ex. 180a]: the IC50 is 6.48 nM in assay [1] and 1040 nM in assay [2] (setting [4]).
